In brackets after ≈: the same amount, converted by molar mass. Like-named read-outs stand apart in the source and are kept apart here.
Key:
[1] = system: SMMC-7721 human hepatic carcinoma; test: In vitro inhibition rate to tumor cells (MTT), SMMC-7721; format: cell-based; conditions: for inhibition rate, Results (%) SMMC-7721: 50 μg/ml; for inhibition at 50 µg/mL: Homo sapiens, SMMC-7721, 50 μg/ml, read-out: inhibition rate, Results (%) SMMC-7721
[2] = system: U-937 human histocytic lymphoma; test: In vitro inhibition rate to tumor cells (MTT), U-937; format: cell-based; conditions: for inhibition rate, Results (%) U-937: 50 μg/ml; for inhibition at 50 µg/mL: Homo sapiens, U-937, 50 μg/ml, read-out: inhibition rate, Results (%) U-937
Hepatitis B virus (HBV) = format: cell-based; conditions: 200 μg/ml; for (Value of the positive control - Measured Value) Value of the positive control × 100%: decrease of HBeAg relative to positive control; for OD450 of HBeAg: supernatant four days after infection, positive control 1.917, negative 0.057
HepG2 cells = test: Cell status of HepG2 cells treated with sample (HBV screening); format: cell-based; conditions: 200 μg/ml, HepG2, four days after infection
Procedure: 1.5 Screening for the agents: The HepG2 cells were counted and 1.5×10^4 cells/well were seeded into a 96-well plate. After incubation overnight in an atmosphere of CO2 at 37° C., each of the experimental samples in a given concentration was added to the cells. After incubation at 37 °C for 24 hrs, the HepG2 treated with the samples were infected with vAcGFPHBVc of 100 MOI. A negative control and a positive control were also included. Four days after infection, the growth of the cells were observed, and the HBV e antigen in the supernatant was measured with the HBV e antigen diagnostic kit.

[3] = system: A-549 human lung adenocarcinoma; test: In vitro inhibition rate to tumor cells (MTT), A-549; format: cell-based; conditions: for inhibition rate, Results (%) A-549: 50 μg/ml; for inhibition at 50 µg/mL: Homo sapiens, A549, 50 μg/ml, read-out: inhibition rate, Results (%) A-549
[4] = system: Hela human cervical carcinoma; test: In vitro inhibition rate to tumor cells (MTT), Hela; format: cell-based; conditions: 50 μg/ml; for inhibition at 50 µg/mL: Homo sapiens, HeLa, read-out: inhibition rate, Results (%) Hela
[5] = system: MCF-7 human mammary adenocarcinoma; test: In vitro inhibition rate to tumor cells (MTT), MCF-7; format: cell-based; conditions: for inhibition rate, Results (%) MCF-7: 50 μg/ml; for inhibition at 50 µg/mL: Homo sapiens, MCF7, 50 μg/ml, read-out: inhibition rate, Results (%) MCF-7
[6] = system: HL-60 human promyelocytic leukemia; test: In vitro inhibition rate to tumor cells (MTT), HL-60; format: cell-based; conditions: for inhibition rate, Results (%) HL-60: 50 μg/ml; for inhibition at 50 µg/mL: Homo sapiens, HL-60, 50 μg/ml, read-out: inhibition rate, Results (%) HL-60
[7] = system: U-937 human histocytic lymphoma; test: In vitro anti-tumor IC50 (MTT), U-937; format: cell-based; conditions: Table 4
Procedure: (§1) (1) Single cell suspension was seeded into 96-well plates (the cells was diluted in the PRMI-1640 minimum medium to 3×10^4 cells/ml, […] diluted cells/well). […] The experiments were performed in quadruplicate.
(§2) (2) The medium was removed. Solutions of the anti-tumor agents (50 compounds) were prepared in a freshly prepared medium at serial concentrations. […] of the solution was added into each well. Incubation was continued for 48 hours.
(§3) (3) 20 ug of 2 mg/ml MTT was added into each well, and incubated for 4 hours.
(§4) (4) The medium was removed from the well. The microplates were swiftly turned down to throw-off the medium. […] of DMSO was added into each well, and vortexed at room temperature for 10 minutes.
(§5) (5) OD value (λ=570 nm) was measured with an Enzyme-Linked Detector.
(§6) (6) The graph of cell vitality was plotted, and IC50 was calculated.

MDCK (dog kidney) cells = test: Toxicity TC50 of the samples in MDCK cells (influenza screening); conditions: concentration of 50% toxicity
[8] = system: Bel-7402 human hepatic carcinoma; test: In vitro inhibition rate to tumor cells (MTT), Bel-7402; format: cell-based; conditions: for inhibition rate, Results (%) Bel-7402: 50 μg/ml; for inhibition at 50 µg/mL: Homo sapiens, Bel-7402, 50 μg/ml, read-out: inhibition rate, Results (%) Bel-7402
[9] = format: cell-based, VSV; conditions: 200 μg/ml, 24 hrs after infection
[10] = system: LLC mouse Lewis lung carcinoma; test: In vitro inhibition rate to tumor cells (MTT), LLC; format: cell-based; conditions: 50 μg/ml; for inhibition at 50 µg/mL: Mus musculus, Lewis lung carcinoma
[11] = system: Hela human cervical carcinoma; test: In vitro anti-tumor IC50 (MTT), Hela; format: cell-based; conditions: Table 4
Procedure: as §1, §2, §3, §4, §5, §6

293 cells = test: Cell status of 293 cells treated with sample alone (herpes virus screening)
[12] = background statement; cited from earlier work
[13] = system: Ehrlich's ascites carcinoma (EAC); conditions: 75 mg/Kg, subcutaneous injection; cited from earlier work
mouse sarcoma 37 = conditions: 75 mg/Kg, subcutaneous injection; cited from earlier work
uterine cervix cancer = conditions: 75 mg/Kg, subcutaneous injection; cited from earlier work
[14] = 50 μg/ml, 293 cells without virus, 12 hrs

## CCCCNC=C1CC2(O)OC3(CC2C(C)C)C(C)CCC13.Cl (centres unmarked) [Compound 14, Curcumol n-butyl amine hydrochloride]
[1]; Table 1
  inhibition rate, Results (%) SMMC-7721: 6.14%
[1]; Table 2 (repeated screening)
  inhibition rate, Results (%) SMMC-7721: 3.21%
[2]; Table 1
  inhibition rate, Results (%) U-937: 82.88%
[2]; Table 2 (repeated screening)
  inhibition rate, Results (%) U-937: 81.23%
Hepatitis B virus (HBV)
  (Value of the positive control - Measured Value) Value of the positive control × 100%: 97.24%
  OD450 of HBeAg: 0.053
HepG2 cells
  Cell status: Poor
[3]; Table 1
  inhibition rate, Results (%) A-549: 8.09%
[3]; Table 2 (repeated screening)
  inhibition rate, Results (%) A-549: 9.23%
[4]; Table 1
  inhibition rate, Results (%) Hela: 75.46%
[4]; Table 2 (repeated screening)
  inhibition rate, Results (%) Hela: 76.32%
[5]; Table 1
  inhibition rate, Results (%) MCF-7: 56.30%
[5]; Table 2 (repeated screening)
  inhibition rate, Results (%) MCF-7: 54.23%
[6]; Table 1
  inhibition rate, Results (%) HL-60: 2.45%
[6]; Table 2 (repeated screening)
  inhibition rate, Results (%) HL-60: 4.35%
[7]
  IC50 (ug/ml) against tumor cell lines, U-937: 0.58 µg/mL
MDCK (dog kidney) cells
  TC50: 143.17 µg/mL
[8]; Table 1
  inhibition rate, Results (%) Bel-7402: 32.00%
[8]; Table 2 (repeated screening)
  inhibition rate, Results (%) Bel-7402: 23.56%
[9]
  Cytopathy and cell status, Sample + VSV: Cytopathy, poor
[10]; Table 1
  inhibition rate, Results (%) LLC: −10.57%
[10]; Table 2 (repeated screening)
  inhibition rate, Results (%) LLC: −14.29%
[11]
  IC50 (ug/ml) against tumor cell lines, Hela: 1.5 µg/mL
293 cells; [14]
  Cytopathy and cell status, Sample: Good
293 cells; 200 μg/ml, 24 hrs
  Cytopathy and cell status, Sample: Poor

## C=C1CC2(O)OC3(CC2C(C)C)C(C)CCC13 (centres unmarked) [Curcumol E, Curcumol, reference compound]
[12]
  water solubility (in words): Poor water solubility
[1]; Table 1
  inhibition at 50 µg/mL: -11.5%
[1]; Table 2 (repeated screening)
  inhibition at 50 µg/mL: -12.3%
[1]; Table 3 (repeated screening)
  inhibition at 50 µg/mL: -0.23%
[2]; Table 1
  inhibition at 50 µg/mL: 28%
[2]; Table 2 (repeated screening)
  inhibition at 50 µg/mL: 14.3%
[2]; Table 3 (repeated screening)
  inhibition at 50 µg/mL: 19.8%
Hepatitis B virus (HBV)
  (Value of the positive control - Measured Value) Value of the positive control × 100%: −38.4455%
  OD450 of HBeAg: 2.654
[13]
  inhibition rate against Ehrlich's ascites carcinoma (in words): high inhibition rate
HepG2 cells
  Cell status: Normal
[3]; Table 1
  inhibition at 50 µg/mL: -0.57%
[3]; Table 2 (repeated screening)
  inhibition at 50 µg/mL: -11.3%
[3]; Table 3 (repeated screening)
  inhibition at 50 µg/mL: -16.6%
Mouse sarcoma 37
  inhibition rate against mouse sarcoma 37 (in words): high inhibition rate
[4]; Table 1
  inhibition at 50 µg/mL: 86.8%
[4]; Table 2 (repeated screening)
  inhibition at 50 µg/mL: 70.1%
[4]; Table 3 (repeated screening)
  inhibition at 50 µg/mL: 78.6%
[5]; Table 1
  inhibition at 50 µg/mL: 55.6%
[5]; Table 2 (repeated screening)
  inhibition at 50 µg/mL: 50.2%
[5]; Table 3 (repeated screening)
  inhibition at 50 µg/mL: 51.2%
[6]; Table 1
  inhibition at 50 µg/mL: 1.32%
[6]; Table 2 (repeated screening)
  inhibition at 50 µg/mL: 1.23%
[6]; Table 3 (repeated screening)
  inhibition at 50 µg/mL: 1.79%
Uterine cervix cancer
  inhibition rate against uterine cervix cancer (in words): high inhibition rate
MDCK (dog kidney) cells
  TC50: >1000 µg/mL
[8]; Table 1
  inhibition at 50 µg/mL: 4.79%
[8]; Table 2 (repeated screening)
  inhibition at 50 µg/mL: 9.87%
[8]; Table 3 (repeated screening)
  inhibition at 50 µg/mL: 9.78%
[10]; Table 1
  inhibition at 50 µg/mL: -3.04%
[10]; Table 2 (repeated screening)
  inhibition at 50 µg/mL: -8.9%
[10]; Table 3 (repeated screening)
  inhibition at 50 µg/mL: -14.4%
[11]; Homo sapiens, HeLa, read-out: IC50 (ug/ml) against tumor cell lines, Hela
  IC50: 3.23 µg/mL (≈ 13.7 µM)
293 cells; [14]
  Cytopathy and cell status, Sample: Good
